Laboratory results from publication PMC8538513, “Inhibition of Matrix Metalloproteinases and Cancer Cell Detachment by Ru(II) Polypyridyl Complexes Containing 4,7-Diphenyl-1,10-phenanthroline Ligands—New Candidates for Antimetastatic Agents” (Pharmaceuticals, 2021).
One block for each compound: values may come before it.

What was measured:
A549 cells [1] = test: Trypsin resistance assay (cell adherence); type: cell-based, human
Protocol: Cells susceptibility to detachment upon incubation with the studied compounds was evaluated by checking their resistance to trypsin treatment. Cells were seeded into 96-well plate with the density of 3 × 10^4 cells per cm^2 in complete medium and cultured for 24 h. Then, cells were incubated with various concentrations of the studied compounds for 24 h. Subsequently, the cells were washed and 30 µL trypsin solution (0.05%) was added to each well for 10 min incubation at 37 °C. Next, cells were washed with PBS and Alamar Blue assay was performed to quantify adherent cells. The received results were normalized with appropriate wells without the trypsin treatment to exclude the possible toxicity of the studied compounds and presented as a percentage of control (untreated) cells. Experiments were performed in triplicates and each experiment was repeated five times to obtain mean values and standard error of the mean.

A549 cells [2] = test: Cytotoxicity, MTT assay; type: cell-based, human
Protocol: In vitro studies were conducted using human lung adenocarcinoma A549 cell line. Cells were routinely cultured in Dulbecco’s Modified Eagle Medium (DMEM, Corning, Corning, NY, USA) supplemented with 10% fetal bovine serum (FBS, Eurx, Gdańsk, Poland) (v/v) and 1% penicillin-streptomycin (100 units/mL–100µg/mL, Corning) (v/v) and incubated at 37 °C in humidified atmosphere with 5% CO2 (v/v). The cytotoxicity of the Ru(II) complexes was evaluated using MTT assay (Sigma-Aldrich). Cells were seeded into 96-well plate with the density of 3 × 10^4 cells per cm^2 in complete medium and cultured for 24 h. Then medium was removed and various concentrations of the studied compounds in basic medium were added. The final DMSO concentration in cell culture was fixed at 0.1% (v/v). […] After the incubation, MTT was removed, and the formed violet formazan crystals were dissolved in the 100 µL of DMSO:methanol (1:1) mixture. […] Experiments were performed in triplicates and repeated three times.

B16F10 melanoma cells = system: B16F10 melanoma cells; design: method as in PMID 16368900; conditions: 100 µM; cited from earlier work
MMP-2 = target: T1, MMP-2 (Homo sapiens, UniProt P08253); test: MMP-2 inhibition, fluorogenic substrate FS-6; type: biochemical; conditions: [FS-6] = 2.5 µM, [enzyme] = 0.5 nM, 0.1 M Tris, pH 7.4, 37 °C; n.i. = no inhibition in the studied range (>> 25 µM, for NAMI-A >> 600 µM)
T1 construct: purchased Sigma-Aldrich
T1 sequence (P08253 110-660): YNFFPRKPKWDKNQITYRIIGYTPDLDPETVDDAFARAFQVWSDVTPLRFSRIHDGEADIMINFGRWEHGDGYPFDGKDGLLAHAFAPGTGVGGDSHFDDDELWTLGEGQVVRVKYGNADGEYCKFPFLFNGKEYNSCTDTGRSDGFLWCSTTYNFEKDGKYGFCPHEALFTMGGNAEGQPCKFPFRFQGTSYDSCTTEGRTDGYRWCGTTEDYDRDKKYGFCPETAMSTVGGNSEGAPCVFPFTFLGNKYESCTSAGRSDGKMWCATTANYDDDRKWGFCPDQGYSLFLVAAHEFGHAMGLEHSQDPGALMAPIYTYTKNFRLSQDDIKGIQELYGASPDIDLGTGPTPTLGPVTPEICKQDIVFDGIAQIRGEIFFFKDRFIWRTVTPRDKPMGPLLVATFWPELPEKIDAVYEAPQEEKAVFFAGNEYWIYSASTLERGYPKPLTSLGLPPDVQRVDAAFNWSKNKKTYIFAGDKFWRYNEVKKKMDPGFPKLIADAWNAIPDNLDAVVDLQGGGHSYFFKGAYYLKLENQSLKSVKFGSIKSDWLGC
Protocol: (§1) MMP-9 and MMP-2 were activated at 4 °C using 1 mM APMA overnight before the experiments. MMP-2 and MMP-9 assays were performed in 0.1 M Tris/HCl (pH 7.4, 37 °C) enriched with 0.1 M NaCl, 10 mM CaCl2, 0.1 mM ZnCl2 and 0.05% Brij35. […] Kinetic fluorescence measurements were performed using a Perkin Elmer LS55 spectrofluorimeter (λex/λem = 325/400 nm). The obtained fluorescence intensities were corrected due to inner filter effect according to the following equation [31]: […] where Fobs denotes the measured fluorescence intensity, while Aλem and Aλex are the absorbance of sample at emission and excitation wavelengths.
(§2) The enzyme activity in the presence of inhibitors was expressed as a fraction of initial reaction rate (vi/v0 ratio, v0—initial reaction rate, vi—initial reaction rate in the presence of inhibitor). IC50 parameters were calculated from a dose-response plot of enzyme fractional activity as a function of inhibitor concentration, using the Hill equation (OriginPro2018). Experiments were repeated three times and results are presented as mean values and standard deviation of the mean.

MMP-9 [3] = target: T2, MMP-9 (Homo sapiens, UniProt P14780); test: MMP-9 inhibition, fluorogenic substrate FS-6; type: biochemical; conditions: [FS-6] = 2.5 µM, [enzyme] = 0.5 nM, 0.1 M Tris, pH 7.4, 37 °C, fluorescence assay; n.i. = no inhibition in the studied range (>> 25 µM, for NAMI-A >> 600 µM)
T2 construct: purchased Sigma-Aldrich
Protocol: as §1, §2

MMP-9 [4] = test: Western blot, expression of the active form of MMP-9; type: cell-based, human; conditions: A549 cells, 24 h, 100 µM, normalized to β-actin
Protocol: A549 cells were seeded in a 25 cm^2 flask with the density of 1.25 × 10^6 cells per flask in complete medium and cultured for 24 h. […] After the incubation, cells were washed with ice-cold PBS and lysed using RIPA buffer containing Halt proteases inhibitor cocktail (Thermo Fisher Scientific). Protein samples (the same concentration per lane) were separated on a 12% sodium dodecyl sulfate polyacrylamide gel. PageRuler™ Prestained Protein Ladder (Thermo Fisher Scientific) was used to determine approximate molecular weights of resolved proteins. Electrophoresis was performed through the stacking gel for 25 min at 60 V and resolving gel for 50 min at 170 V at room temperature using a PowerPac™ Basic Power Supply (Bio-Rad, Inc., Hercules, CA, USA). […] Reactive protein was detected after membrane was washed three times in TBST using GE Healthcare Amersham™ ECL Prime Western Blotting Detection Reagent (GE Healthcare Inc., Chicago, IL, USA). Only one protein was detected at a time, each membrane was stripped in 0.2 M NaOH over 20 min, washed three times in water and blocked again before proceeding with another primary antibody. Data were collected by ChemiDoc XRS+ Imaging System (Bio-Rad, Inc., Hercules, CA, USA) and analyzed with Image Lab v. […]

A549 cells [5] = test: Cellular uptake of ruthenium (ICP-MS); type: cell-based, human; conditions: 1 µM complex, 24 h
Protocol: For cellular uptake A549 cells were seeded in a 6-well plate with the density of 4 × 10^4 cells per cm^2 in complete medium and cultured for 24 h. […] Any dead cells were eliminated by washing cells’ monolayer with PBS. Subsequently, the incubated cells were washed, detached by trypsin treatment and counted. The cells were isolated by centrifugation and digested in concentrated nitric acid overnight at room temperature. The solutions were diluted with Millipore water to a final nitric acid concentration of 2%. The Ru content in the samples was measured by inductively coupled plasma mass spectrometry (ICP-MS) using NexION 2000C (Perkin Elmer). Experiments were repeated three times. Results were calculated as ruthenium concentration per cell and presented as mean values and standard deviation of mean. Similarly, the content of Ru ions was measured in subcellular fraction obtained as described in chapter 4.5.

A549 cells [6] = conditions: cited from earlier work

T2 sequence (P14780 107-707 limits assumed): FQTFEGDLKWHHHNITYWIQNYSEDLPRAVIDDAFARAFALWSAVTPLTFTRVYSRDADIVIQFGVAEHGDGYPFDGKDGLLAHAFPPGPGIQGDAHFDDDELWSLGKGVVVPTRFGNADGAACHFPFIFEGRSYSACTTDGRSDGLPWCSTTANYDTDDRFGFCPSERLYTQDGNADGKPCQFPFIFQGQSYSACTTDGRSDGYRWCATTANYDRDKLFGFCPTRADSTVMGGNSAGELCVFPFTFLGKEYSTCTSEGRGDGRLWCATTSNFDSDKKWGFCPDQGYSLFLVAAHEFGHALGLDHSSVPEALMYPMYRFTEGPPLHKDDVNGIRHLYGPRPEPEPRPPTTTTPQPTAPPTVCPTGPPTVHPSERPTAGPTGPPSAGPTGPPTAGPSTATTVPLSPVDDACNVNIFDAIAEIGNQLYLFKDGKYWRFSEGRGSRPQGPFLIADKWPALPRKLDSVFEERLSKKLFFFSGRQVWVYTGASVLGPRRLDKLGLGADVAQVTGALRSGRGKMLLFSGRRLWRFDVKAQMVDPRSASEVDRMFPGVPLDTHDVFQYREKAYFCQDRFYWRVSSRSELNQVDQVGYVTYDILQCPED

SMILES: CNC(=O)[C@H](Cc1c[nH]c2ccccc12)NC(=O)[C@@H](CC(=O)NO)CC(C)C [GM6001]
Effect on cell adhesion properties (in words) (A549 cells [1]; GM6001 1–8 µM): no alteration in cell adhesion properties was observed
Toxicity at the concentration used (A549 cells [2]; 1–8 µM): non-toxic concentration

IC50 for MMP-2 (MMP-2): no inhibitory properties and n.i.
IC50 for MMP-9 (MMP-9 [3]): no inhibitory properties and n.i.
SMILES: CS(C)=O.[Cl-].[Cl-].[Cl-].[Cl-].[Ru+3].c1c[nH+]c[nH]1.c1c[nH]cn1 [NAMI-A, trans-[tetrachlorido(1H-imidazole)(S-dimethylsulphoxide)ruthenate(III)]]
Adhesion strength vs. control (B16F10 melanoma cells): up to 162 % vs. control
Cell adherence (adhesion strength) compared to control (A549 cells [1]; NAMI-A 100 µM): ca. 250%
Reduction of expression of active MMP-9 (MMP-9 [4]): 43%

SMILES: [Ru+2].c1ccc(-c2ccccn2)nc1.c1ccc(-c2ccnc3c2ccc2c(-c4ccccc4)ccnc23)cc1.c1ccc(-c2ccnc3c2ccc2c(-c4ccccc4)ccnc23)cc1 [[Ru(dip)2(bpy)]^2+]
IC50 (MMP-2): 22.5 ± 2 µM
IC50 (MMP-9 [3]): 6.2 ± 2.8 µM

SMILES: [Ru+2].c1ccc(-c2ccnc3c2ccc2c(-c4ccccc4)ccnc23)cc1.c1ccc(-c2ccnc3c2ccc2c(-c4ccccc4)ccnc23)cc1.c1ccc(-c2ccnc3c2ccc2c(-c4ccccc4)ccnc23)cc1 [[Ru(dip)3]^2+]
IC50 (MMP-2): 8.3 ± 1.1 µM
IC50 (MMP-9 [3]): 4.1 ± 1.6 µM
Effect on cell adhesion / cell detachment (in words) (A549 cells [1]; 24 h, non-toxic concentrations, effect seen from 1 µM): high activity in inhibiting of cell detachment
Cytotoxicity (IC50) (A549 cells [2]; 24 h incubation, MTT): most cytotoxic compound
Increase of ruthenium concentration in a cell (uptake) (A549 cells [5]): highest uptake by cells

SMILES: N.N.[Cl][Pt][Cl] [cisplatin]
IC50 (A549 cells [6]): 70 µM
